Assay results: patent US12667101B2, “Picolinamide derivatives useful as agricultural fungicides” (GLOBACHEM NV, priority 2019, dated 2026)
In brackets after ≈: the same amount, converted by molar mass.

Tested on: Zymoseptoria tritici
Test: Fungicidal activity screen in amended agar, 96 well plates
Type: cell-based
Conditions: 168 h, 1% potato dextrose agar amended to 20, 2, 0.2 and 0.02 ppm, 10,000 spores/mL, 18° C., assessed after 7 days, read-out: Zymoseptoria (EC50 ranking of fungal growth vs DMSO controls)
Method: Compounds were screened in 96 well plates with 10 compounds per plate. Each compound was screened using agar amended to 20, 2, 0.2 and 0.02 ppm of the test material. Proline at 50 and 10 ppm and 0.2% DMSO were used respectively as positive and negative controls. Each test concentration and standard were tested twice on a plate.
Compounds were screened against Zymoseptoria tritici. The agar used in the test was 1% potato dextrose agar. Sufficient spores were added to the appropriate agar to give 10,000 spores/mL agar.
A ×10 stock solution in 2% DMSO was produced for each dose i.e. 200, 20, 2 and 0.2 ppm, and 10 μl of this added to the appropriate wells on the plate. An equivalent amount of 2% DMSO and Proline stock at 500 and 100 ppm were added for the controls. To each well, 90 μl of the appropriate agar spore suspension was added to give the final well concentrations outlined in the first paragraph.
Plates were incubated at room temperature (18° C.) and assessed after 7 days.
The amount of fungal growth in each well was compared to the DMSO controls and scored according to the following key: • A—EC50<2 ppm • B—2≤EC50<20 • C—EC50≥20 • D—No activity detected at the highest dose tested • NT—Not tested

Row | SMILES | EC50
1 | CCOc1ccc2cc(NC(=O)c3nccc(OC)c3O)ccc2n1 [Example 1, N-(2-ethoxyquinolin-6-yl)-3-hydroxy-4-methoxypicolinamide] | 2 to 20 µg/mL (≈ 5.89 to 58.9 µM)
2 | COc1ccnc(C(=O)Nc2ccc3nc(Oc4ccc(F)cc4)ccc3c2)c1O [Example 2, N-(2-(4-fluorophenoxy)quinolin-6-yl)-3-hydroxy-4-methoxypicolinamide] | < 2 µg/mL
3 | CCCOc1ccc2cc(NC(=O)c3nccc(OC)c3O)ccc2n1 [Example 3, 3-hydroxy-4-methoxy-N-(2-propoxyquinolin-6-yl)picolinamide] | < 2 µg/mL
4 | CCCCOc1ccc2cc(NC(=O)c3nccc(OC)c3O)ccc2n1 [Example 4, N-(2-butoxyquinolin-6-yl)-3-hydroxy-4-methoxypicolinamide] | 2 to 20 µg/mL (≈ 5.44 to 54.4 µM)
5 | COc1ccnc(C(=O)Nc2ccc3nc(OC(C)C)ccc3c2)c1O [Example 5, 3-hydroxy-N-(2-isopropoxyquinolin-6-yl)-4-methoxypicolinamide] | < 2 µg/mL
6 | COc1ccnc(C(=O)Nc2ccc3nc(OC(C)C(C)C)ccc3c2)c1O (stereo not shown) [Example 6, 3-hydroxy-4-methoxy-N-(2-((3-methylbutan-2-yl)oxy)quinolin-6-yl)picolinamide] | < 2 µg/mL
7 | COc1ccnc(C(=O)Nc2ccc3nc(OCCC(C)C)ccc3c2)c1O [Example 7, 3-hydroxy-N-(2-(isopentyloxy)quinolin-6-yl)-4-methoxypicolinamide] | < 2 µg/mL
8 | COc1ccnc(C(=O)Nc2ccc3nc(N(C)c4ccc(F)cc4)ccc3c2)c1O [Example 8, N-(2-((4-fluorophenyl)(methyl)amino)quinolin-6-yl)-3-hydroxy-4-methoxypicolinamide] | < 2 µg/mL
9 | COc1ccnc(C(=O)Nc2ccc3nc(Sc4ccc(F)cc4)ccc3c2)c1O [Example 9, N-(2-((4-fluorophenyl)thio)quinolin-6-yl)-3-hydroxy-4-methoxypicolinamide] | < 2 µg/mL
10 | COc1ccnc(C(=O)Nc2ccc3nc(Cl)ccc3c2)c1O [Example 10, N-(2-chloroquinolin-6-yl)-3-hydroxy-4-methoxypicolinamide] | ≥ 20 µg/mL
11 | CCC(C)Oc1ccc2cc(NC(=O)c3nccc(OC)c3O)ccc2n1 (stereo not shown) [Example 11, N-(2-(sec-butoxy)quinolin-6-yl)-3-hydroxy-4-methoxypicolinamide] | < 2 µg/mL
12 | COc1ccnc(C(=O)Nc2ccc3ncc(Cc4ccccc4)cc3c2)c1O [Example 13, N-(3-benzylquinolin-6-yl)-3-hydroxy-4-methoxypicolinamide] | ≥ 20 µg/mL
13 | COc1ccnc(C(=O)Nc2ccc3cc(Cc4ccccc4)ccc3n2)c1O [Example 14, N-(6-benzylquinolin-2-yl)-3-hydroxy-4-methoxypicolinamide] | ≥ 20 µg/mL
14 | COc1ccnc(C(=O)Nc2ccc3cc(Br)ccc3n2)c1O [Example 15, N-(6-bromoquinolin-2-yl)-3-hydroxy-4-methoxypicolinamide] | 2 to 20 µg/mL (≈ 5.34 to 53.4 µM)
15 | COc1ccnc(C(=O)Nc2ccc3cc(-c4ccccc4)ccc3n2)c1O [Example 16, 3-hydroxy-4-methoxy-N-(6-phenylquinolin-2-yl)picolinamide] | 2 to 20 µg/mL (≈ 5.39 to 53.9 µM)
16 | COc1ccnc(C(=O)Nc2ccc3cc(Br)ccc3n2)c1OC(C)=O [Example 17, 2-((6-bromoquinolin-2-yl)carbamoyl)-4-methoxypyridin-3-yl acetate] | 2 to 20 µg/mL
17 | COc1ccnc(C(=O)Nc2ccc3cc(-c4ccccc4)ccc3n2)c1OC(C)=O [Example 18, 4-methoxy-2-((6-phenylquinolin-2-yl)carbamoyl)pyridin-3-yl acetate] | 2 to 20 µg/mL
18 | COc1ccnc(C(=O)Nc2ccc3nc(Oc4ccc(F)cc4)ccc3c2)c1OC(C)=O [Example 19, 2-((2-(4-fluorophenoxy)quinolin-6-yl)carbamoyl)-4-methoxypyridin-3-yl acetate] | < 2 µg/mL
19 | COc1ccnc(C(=O)Nc2ccc3nc(Oc4ccccc4Cl)ccc3c2)c1O [Example 20, N-(2-(2-chlorophenoxy)quinolin-6-yl)-3-hydroxy-4-methoxypicolinamide] | ≥ 20 µg/mL
